Results on 15 compounds are retold here after ChEMBL document CHEMBL2046368, “New triterpenoid saponins from cacti and anti-type I allergy activity of saponins from cactus” (Bioorg Med Chem Lett, 2012).

Usually inhibition stands for the relative decrease from the control value, in per cent. Usually IC50 stands for the point on the concentration scale where inhibition reaches its midpoint.

Each structure is given as a SMILES string.

For the first assay, the system named is RBL-2H3. Kind of assay: Anti-type1 allergic activity in rat RBL2H3 cells using p-nitrophenyl-2-acdetamido-2-deoxy-beta-D-glucopyranoside as substrate assessed as inhibition of beta-hexosaminidase release at 100 uM incubated for 10 mins prior to substrate addition measured after 60 mins by spectrophotometry. The assay is classed as functional.
With `COC(=O)[C@H]1O[C@@H](O[C@H]2CC[C@]3(C)[C@H]4CC=C5[C@@H]6CC(C)(C)C[C@H](O)[C@]67C[C@@H](OC7=O)[C@@]5(C)[C@]4(C)CC[C@H]3C2(C)C)[C@H](O[C@@H]2O[C@H](CO)[C@@H](O)[C@H](O)[C@H]2O[C@@H]2O[C@@H](C)[C@H](O)[C@@H](O)[C@H]2O)[C@@H](O)[C@@H]1O`, the inhibition at 100 µM was found to be 40.3%.

Another assay relates to RBL-2H3. Kind of assay: Anti-type1 allergic activity in rat RBL2H3 cells using p-nitrophenyl-2-acdetamido-2-deoxy-beta-D-glucopyranoside as substrate assessed as inhibition of beta-hexosaminidase release at 200 uM incubated for 10 mins prior to substrate addition measured after 60 mins by spectrophotometry. The format is functional.
`C[C@@H]1O[C@@H](O[C@H]2[C@H](O[C@H]3[C@H](O[C@H]4CC[C@]5(C)[C@H]6CC=C7[C@@H]8CC(C)(C)C[C@H](O)[C@]89C[C@@H](OC9=O)[C@@]7(C)[C@]6(C)CC[C@H]5C4(C)C)O[C@H](C(=O)O)[C@@H](O)[C@@H]3O)O[C@H](CO)[C@@H](O)[C@@H]2O)[C@H](O)[C@H](O)[C@H]1O` [DUMORTIERINOSIDE A]: the inhibition at 200 µM was 32.5%.

The subject of another assay is RBL-2H3. In words: Anti-type1 allergic activity in rat RBL2H3 cells using p-nitrophenyl-2-acdetamido-2-deoxy-beta-D-glucopyranoside as substrate assessed as inhibition of beta-hexosaminidase release incubated for 10 mins prior to substrate addition measured after 60 mins by spectrophotometry. The assay is classed as functional, cell-based.
With `COC(=O)[C@H]1O[C@@H](O[C@H]2CC[C@]3(C)[C@H]4CC=C5[C@@H]6CC(C)(C)C[C@H](O)[C@]67C[C@@H](OC7=O)[C@@]5(C)[C@]4(C)CC[C@H]3C2(C)C)[C@H](O[C@@H]2O[C@H](CO)[C@@H](O)[C@H](O)[C@H]2O[C@@H]2O[C@@H](C)[C@H](O)[C@@H](O)[C@H]2O)[C@@H](O)[C@@H]1O`, the IC50 is > 200 µM. Regarding `C[C@@H]1O[C@@H](O[C@@H]2[C@@H](O)[C@H](O[C@H]3CC[C@]4(C)[C@H]5CC=C6[C@@H]7CC(C)(C)CC[C@]7(C(=O)O[C@@H]7O[C@H](CO)[C@@H](O)[C@H](O)[C@H]7O)CC[C@@]6(C)[C@]5(C)CC[C@H]4C3(C)C)O[C@H](C(=O)O)[C@H]2O)[C@H](O)[C@H](O)[C@H]1O`, the IC50 was > 200 µM.

As for `C[C@@H]1O[C@@H](O[C@H]2[C@H](O[C@H]3[C@H](O[C@H]4CC[C@]5(C)[C@H]6CC=C7[C@@H]8C[C@@](C)(CO)[C@@H](O)C[C@]89C[C@@H](OC9=O)[C@@]7(C)[C@]6(C)CC[C@H]5C4(C)C)O[C@H](C(=O)O)[C@@H](O)[C@@H]3O)O[C@H](CO)[C@@H](O)[C@@H]2O)[C@H](O)[C@H](O)[C@H]1O` [BRIDGESIDE A1], the IC50 is > 200 µM. Same read-out and setting: the result for `CC(=O)OC[C@]1(C)C[C@H]2C3=CC[C@@H]4[C@@]5(C)CC[C@H](O[C@@H]6O[C@H](C(=O)O)[C@@H](O)[C@H](O)[C@H]6O[C@@H]6O[C@H](CO)[C@@H](O)[C@H](O)[C@H]6O[C@@H]6OC[C@@H](O)[C@H](O)[C@H]6O)C(C)(C)[C@@H]5CC[C@@]4(C)[C@]3(C)[C@H]3C[C@]2(C[C@@H]1O)C(=O)O3` [BRIDGESIDE D1] reads > 200 µM; that for `CC(=O)OC[C@]1(C)C[C@H]2C3=CC[C@@H]4[C@@]5(C)CC[C@H](O[C@@H]6O[C@H](C(=O)O)[C@@H](O)[C@H](O)[C@H]6O[C@@H]6O[C@H](CO)[C@@H](O)[C@H](O)[C@H]6O[C@@H]6O[C@@H](C)[C@H](O)[C@@H](O)[C@H]6O)C(C)(C)[C@@H]5CC[C@@]4(C)[C@]3(C)[C@H]3C[C@]2(C[C@@H]1O)C(=O)O3` [BRIDGESIDE D2], > 200 µM. For `C[C@@H]1O[C@@H](O[C@H]2[C@H](O[C@H]3[C@H](O[C@H]4CC[C@]5(C)[C@H]6CC=C7[C@@H]8CC(C)(C)C[C@H](O)[C@]89C[C@@H](OC9=O)[C@@]7(C)[C@]6(C)CC[C@H]5C4(C)C)O[C@H](C(=O)O)[C@@H](O)[C@@H]3O)O[C@H](CO)[C@@H](O)[C@@H]2O)[C@H](O)[C@H](O)[C@H]1O` [DUMORTIERINOSIDE A], the IC50 is > 200 µM.

`C=C(C)[C@@H]1CC[C@]2(C(=O)O[C@@H]3O[C@H](CO)[C@@H](O)[C@H](O)[C@H]3O)CC[C@]3(C)[C@H](CC[C@@H]4[C@@]5(C)CC[C@H](O[C@@H]6O[C@H](C(=O)O)[C@@H](O)[C@H](O[C@@H]7O[C@@H](C)[C@H](O)[C@@H](O)[C@H]7O)[C@H]6O[C@@H]6O[C@@H](C)[C@H](O)[C@@H](O)[C@H]6O)C(C)(C)[C@@H]5CC[C@]43C)[C@@H]12` [ERUCASAPONIN A]: the IC50 was > 200 µM. Same read-out and setting: the result for `COC(=O)[C@H]1O[C@@H](O[C@H]2CC[C@]3(C)[C@H]4CC=C5[C@@H]6CC(C)(C)CC[C@]6(C=O)[C@@H](O)C[C@@]5(C)[C@]4(C)CC[C@H]3C2(C)C)[C@H](O[C@@H]2O[C@H](CO)[C@@H](O)[C@H](O)[C@H]2O)[C@@H](O[C@@H]2O[C@H](CO)[C@@H](O)[C@H](O)[C@H]2O)[C@@H]1O` [GUMMOSOSIDE A METHYL ESTER] reads 99.5 µM; that for `CC1(C)CC[C@]2(C=O)[C@@H](O)C[C@]3(C)C(=CC[C@@H]4[C@@]5(C)CC[C@H](O[C@@H]6O[C@H](C(=O)O)[C@@H](O)[C@H](O[C@@H]7O[C@H](CO)[C@@H](O)[C@H](O)[C@H]7O)[C@H]6O[C@@H]6O[C@H](CO)[C@@H](O)[C@H](O)[C@H]6O)C(C)(C)[C@@H]5CC[C@]43C)[C@@H]2C1` [GUMMOSOSIDE A], > 200 µM; that for `C[C@H]1C[C@]23C(=O)O[C@@]14C(=CC[C@@H]1[C@@]5(C)CC[C@H](O[C@@H]6O[C@H](C(=O)O)[C@@H](O)[C@H](O[C@@H]7OC[C@@H](O)[C@H](O)[C@H]7O)[C@H]6O[C@@H]6O[C@H](CO)[C@@H](O)[C@H](O)[C@H]6O)C(C)(C)[C@@H]5CC[C@]14C)[C@@H]2CC(C)(C)C[C@@H]3O[C@@H]1O[C@H](C(=O)O)[C@@H](O)[C@H](O)[C@H]1O` [PACHANOSIDE D1], > 200 µM. Still for that read-out and setting: as for `CC(=O)O[C@H]1CC(C)(C)C[C@H]2C3=CC[C@@H]4[C@@]5(C)CC[C@H](O[C@@H]6O[C@H](C(=O)O)[C@@H](O)[C@H](O[C@@H]7OC[C@@H](O)[C@H](O)[C@H]7O)[C@H]6O[C@@H]6O[C@H](CO)[C@@H](O)[C@H](O)[C@H]6O)C(C)(C)[C@@H]5CC[C@@]4(C)[C@]34OC(=O)[C@]12C[C@@H]4C` [PACHANOSIDE I1], the figure is > 200 µM. The same measure, in the same setting: as for `C[C@@H]1O[C@@H](O[C@@H]2[C@@H](O)[C@@H](O)[C@H](O[C@H]3[C@H](O[C@H]4CC[C@]5(C)[C@H]6CC[C@@H]7[C@H]8[C@H](C(C)(C)O)[C@@H]9C[C@@]8(CC[C@@]7(C)[C@]6(C)CC[C@H]5C4(C)C)C(=O)O9)O[C@H](C(=O)O)[C@@H](O)[C@@H]3O)O[C@H]2C)[C@H](O)[C@H](O)[C@H]1O` [STELLATOSIDE A], the figure is > 200 µM. As to `CC(C)(O)[C@H]1[C@@H]2[C@H]3CC[C@@H]4[C@@]5(C)CC[C@H](O[C@@H]6O[C@H](C(=O)O)[C@@H](O)[C@H](O)[C@H]6O[C@@H]6O[C@H](CO)[C@@H](O)[C@H](O)[C@H]6O[C@@H]6OC[C@@H](O)[C@H](O)[C@H]6O)C(C)(C)[C@@H]5CC[C@@]4(C)[C@]3(C)CC[C@@]23C[C@@H]1OC3=O` [STELLATOSIDE B], the IC50 is > 200 µM. Same read-out and setting: as for `C[C@@H]1O[C@@H](O[C@H]2[C@H](O[C@H]3CC[C@]4(C)[C@H]5CC[C@@H]6[C@H]7[C@H](C(C)(C)O)[C@@H]8C[C@@]7(CC[C@@]6(C)[C@]5(C)CC[C@H]4C3(C)C)C(=O)O8)O[C@H](C(=O)O)[C@@H](O)[C@@H]2O[C@@H]2O[C@@H](C)[C@H](O)[C@@H](O)[C@H]2O)[C@H](O)[C@H](O)[C@H]1O` [STELLATOSIDE C], the figure is > 200 µM; as for `C=C(C)[C@H]1[C@@H]2[C@H]3CC[C@@H]4[C@@]5(C)CC[C@H](O[C@@H]6O[C@H](C(=O)O)[C@@H](O)[C@H](O[C@@H]7O[C@@H](C)[C@H](O)[C@@H](O)[C@H]7O)[C@H]6O[C@@H]6O[C@@H](C)[C@H](O)[C@@H](O)[C@H]6O)C(C)(C)[C@@H]5CC[C@@]4(C)[C@]3(C)CC[C@@]23C[C@@H]1OC3=O` [THURBEROSIDE A], 167 µM.
